These results are taken from PubChem BioAssay (NCI).

What all share (assay): NCI anticancer screen, dose series, 48 h
In assay [1] the test system is PC-3 prostate.
Assay [2] concerns MALME-3M melanoma.
Assay [3] has as its system SN12C renal.
Assay [4] concerns KM12 colon.
The subject of assay [5] is U251 CNS.
For assay [6], the system named is LOX IMVI melanoma.
Assay [7] deals with NCI-H23 lung.

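Following 48 hours of exposure in 96-well plates, responses at five concentrations were used to interpolate endpoints linearly. Abbreviation: GI50, concentration required for 50% inhibition of growth. TGI is the concentration that stops growth completely.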

Take `Nc1ccccc1OCCCOc1ccccc1N`: the TGI in assay [1], in assay [2], in assay [3], in assay [4], in assay [5] and in assay [6] was greater than 100 µM throughout. The compound further registered a TGI in assay [7] greater than 100 µM.
Take `COc1ccc(Cn2c3ccc([N+](=O)[O-])cc3c(=O)n2Cc2ccccn2)cc1`: the TGI in assay [1], in assay [2], in assay [3], in assay [4], in assay [5] and in assay [6] was greater than 100 µM each time. In addition, the TGI in assay [7] was greater than 100 µM.
Take `CN(C)CC1CCCc2ccccc2C1=O` (configuration not stated): the TGI in assay [1] was determined as 3 µM; in assay [2] it was 3.62 µM; in assay [3], 24.2 µM; in assay [4], 4.69 µM; in assay [5], 3.12 µM; in assay [6], 4.49 µM. Further, the TGI in assay [7] amounted to 15.2 µM.
For `CC(C)C1=C(Cc2ccccc2)C(=O)O/C1=C\c1ccc(O)c(Cl)c1`, the TGI was found to be 31.7 µM in assay [1]; 30.6 µM in assay [2]; 30.7 µM in assay [3]; 32 µM in assay [4]; 30.3 µM in assay [5]; 32.3 µM in assay [6]. This compound also had a TGI in assay [7] of 25.8 µM.
With `COc1cc(/C(=C2/O[C@@H]([C@H]3COC(C)(C)O3)[C@H]3OC(C)(C)O[C@@H]23)c2ccc3c(c2)OCO3)cc(OC)c1OC`, the GI50 in assay [1] was greater than 25 µM; in assay [2] it was greater than 25 µM; in assay [3], 18.8 µM; in assay [4], greater than 25 µM; in assay [5] it was greater than 25 µM; in assay [6] it was greater than 25 µM. For the same compound, in assay [7], the GI50 was greater than 25 µM. For the same compound, the TGI in assay [1], in assay [2], in assay [3], in assay [4], in assay [5] and in assay [6] was greater than 25 µM throughout. The same compound returned a TGI in assay [7] greater than 25 µM.
With `O=C(NNS(=O)(=O)c1ccccc1)c1csc(NC(=S)NC2CCCCC2)n1`, the TGI in assay [1] was greater than 100 µM; in assay [2], greater than 100 µM; in assay [3] it was 39.3 µM; in assay [4], greater than 100 µM; in assay [5] it was greater than 100 µM; in assay [6] it was 33.9 µM. In assay [7], this compound returned a TGI greater than 100 µM.
Consider `CCOC(=O)C(NC(=O)CC)(Nc1ccc(S(=O)(=O)Nc2ccc(OC)nn2)cc1)C(F)(F)F` (configuration not stated), for which the TGI in assay [1], in assay [2], in assay [3], in assay [4], in assay [5] and in assay [6] was greater than 100 µM throughout. This compound registered a TGI in assay [7] greater than 100 µM.
In the case of `OC1(c2ccc(Cl)cc2)c2c(c3ccccc3c3ccccc23)C2=NCCN21` (configuration not stated), the TGI in assay [1] turned out to be 49.6 µM; in assay [2], 40.1 µM; in assay [3], 44.7 µM; in assay [4], 47.8 µM; in assay [5], 30.8 µM; in assay [6], 73.8 µM. In addition, in assay [7], the TGI was 24.5 µM.
Turning to `O=C1c2cccnc2-c2nccc3c2c1nc1ccc(Br)cc13`, the TGI in assay [1] is 0.234 µM; in assay [2], 0.338 µM; in assay [3] it was 0.205 µM; in assay [4], 0.207 µM; in assay [5] it was 0.147 µM; in assay [6] it was 0.0806 µM. In addition, the TGI in assay [7] worked out at 0.12 µM.
In the case of `O=C1c2cc3c(cc2CC1Cc1ccc2c(c1)CCC2)CCC3` (configuration not stated), the TGI in assay [1], in assay [2], in assay [3], in assay [4], in assay [5] and in assay [6] was greater than 100 µM each time. Further, in assay [7], the TGI is greater than 100 µM.
With `O=C1CCCCN1C(=O)c1ccc([N+](=O)[O-])cc1`, the TGI in assay [1], in assay [2], in assay [3], in assay [4], in assay [5] and in assay [6] was greater than 100 µM in each case. The same compound returned a TGI in assay [7] greater than 100 µM.
In the case of `Cn1c(COC(=O)NC2CCCCC2)c(COC(=O)NC2CCCCC2)c2ccc3cc(C=O)ccc3c21`, the TGI is greater than 100 µM in assay [1]; greater than 100 µM in assay [2]; greater than 100 µM in assay [3]; greater than 100 µM in assay [4]; 87.5 µM in assay [5]; greater than 100 µM in assay [6]. The TGI in assay [7] is greater than 100 µM.
`CC1C(C#N)(C#N)C(C#N)=C(N)C1(C)[N+](=O)[O-]` (configuration not stated): the TGI in assay [1], in assay [2], in assay [3], in assay [4], in assay [5] and in assay [6] was greater than 100 µM each time. Also, in assay [7], the TGI was greater than 100 µM.
`O=C(CC(c1ccccc1)C(C(=O)c1ccncc1)C(CC(=O)c1ccncc1)c1ccccc1)c1ccncc1` (configuration not stated): the TGI in assay [1], in assay [2], in assay [4], in assay [5], in assay [6] and in assay [7] was greater than 100 µM each time.
As for `COC12C=CC(CC1)C(C)(C)C2OS(C)(=O)=O` (configuration not stated), the TGI in assay [1], in assay [2], in assay [3], in assay [4], in assay [5] and in assay [7] was greater than 100 µM throughout.
For `C=CCOCn1ccc(N)nc1=O`, the TGI in assay [1], in assay [2], in assay [3], in assay [4], in assay [6] and in assay [7] was greater than 100 µM in each case.
In the case of `COc1cc(S(=O)(=O)Nc2ccc(-c3csc(N4C(=O)C(C)SC4c4ccccc4)n3)cc2)ccc1Cl` (configuration not stated), the TGI in assay [1], in assay [2], in assay [3], in assay [4], in assay [6] and in assay [7] was greater than 100 µM in each case.
